The source of these data is patent US20230210851A1, “SPIRO-LACTAM COMPOUNDS AND METHODS OF TREATING VIRAL INFECTIONS USING THE SAME” (Aptinyx Inc., priority 2020, published 2023).

Read-outs that look alike come from different tables or passages of the source.

As usually defined, the IC50 is the midpoint of a concentration-inhibition curve. Higher therefore signals a need for much substance. For orientation: % Inhibition means how much of the control response was suppressed. Low readings indicate little suppression, high ones strong suppression.

In this test the target is T1, 3CL Protease, MBP-tagged (SARS-CoV-2) (Severe acute respiratory syndrome coronavirus 2, UniProt P0DTD1).
T1 construct: The assay was performed using 3CL Protease, MBP-tagged (SARS-CoV-2) Assay kit; MBP; purchased BPS Biosciences 79955-2
As to the kind of experiment: biochemical. The note with it: for IC50: compound study, 10 point dose response curve; for activity at tested concentrations: tested concentrations 0.002-30 µM.

The mark [1] stands for this setting: 30 µM concentration, approximate values, read-out: inhibition at 30 µM concentration.
[2] abbreviates: COVID-19 3CL Protease inhibitory activity at 30 µM compound, read-out: % Inhibition at 30 µM.
Where [3] appears, read: read-out: % Inhibition at 30 µM, COVID-19 3CL Protease inhibitory activity at 30 µM compound.
Where [4] appears, read: COVID-19 3CL Protease inhibitory activity at 30 µM compound.
The mark [5] stands for this setting: COVID-19 3CL Protease inhibitory activity at 30 µM compound, 30 µM.

Regarding `O=C(CCl)N1CCN(Cc2ccc(F)cc2)C2(CCNC2=O)C1` (single isomer, unassigned) [ET-108, 9-(2-chloroacetyl)-6-(4-fluorobenzyl)-2,6,9-triazaspiro[4.5]decan-1-one], the half-maximal inhibitory concentration (IC50) turned out to be 6 µM. Moreover, the inhibition at 30 µM under setting [1] was around 84%. Moreover, under setting [2], the inhibition at 30 µM is 84%. For `CC(=O)N1CCN(Cc2ccccc2)[C@]2(CCNC2=O)C1` [ES-319], the “activity at tested concentrations” value is “inactive”. For the same compound, the inhibition at 30 µM under setting [3] is 0%. On to `CC(=O)N1CCN(Cc2ccccc2)[C@@]2(CCNC2=O)C1` [ES-320], for which the “activity at tested concentrations” value was “inactive”. Also, the inhibition at 30 µM under setting [3] turned out to be 0%. `O=C(CCl)N1CCN(Cc2ccccc2)[C@@]2(CCNC2=O)C1` [ET-103, 6-benzyl-9-(2-chloroacetyl)-2,6,9-triazaspiro[4.5]decan-1-one]: the inhibition at 30 µM is around 44% under setting [1] and 44% under setting [2].

Take `O=C(CCl)N1CCN(Cc2ccccc2)[C@]2(CCNC2=O)C1` [ET-104, 6-benzyl-9-(2-chloroacetyl)-2,6,9-triazaspiro[4.5]decan-1-one]: the IC50 was found to be 11.5 µM. Also, the inhibition at 30 µM under setting [1] is around 92%. In addition, the inhibition at 30 µM under setting [2] was found to be 92%. Turning to `O=C(CCl)N1CCN(Cc2ccc(F)cc2)C2(CCNC2=O)C1` (stereo not shown) [ET-107, 9-(2-chloroacetyl)-6-(4-fluorobenzyl)-2,6,9-triazaspiro[4.5]decan-1-one], under setting [2], the inhibition at 30 µM is 38%.

As for `O=C(CI)N1CCN(Cc2ccccc2)C2(CCNC2=O)C1` (stereo not shown) [ET-109, 6-benzyl-9-(2-iodoacetyl)-2,6,9-triazaspiro[4.5]decan-1-one], the inhibition at 30 µM under setting [3] amounted to 36%. Take `O=C(CI)N1CCN(Cc2ccccc2)C2(CCNC2=O)C1` (stereo not shown) [ET-110, 6-benzyl-9-(2-iodoacetyl)-2,6,9-triazaspiro[4.5]decan-1-one]: the inhibition at 30 µM (read-out: inhibition at 30 µM concentration, 30 µM concentration, approximate values) was around 47%. `CC(Cl)C(=O)N1CCN(Cc2ccccc2)C2(CCNC2=O)C1` (stereo not shown) [ET-111, 6-benzyl-9-(2-chloropropanoyl)-2,6,9-triazaspiro[4.5]decan-1-one]: under setting [3], the inhibition at 30 µM is 0%. Turning to `CC(Cl)C(=O)N1CCN(Cc2ccccc2)C2(CCNC2=O)C1` (stereo not shown) [ET-112, 6-benzyl-9-(2-chloropropanoyl)-2,6,9-triazaspiro[4.5]decan-1-one], the “% Inhibition at 30 µM” value under setting [4] was 0%. With `CC(Cl)C(=O)N1CCN(Cc2ccccc2)C2(CCNC2=O)C1` (stereo not shown) [ET-113, 6-benzyl-9-(2-chloropropanoyl)-2,6,9-triazaspiro[4.5]decan-1-one], the “% Inhibition at 30 µM” value under setting [4] amounted to 0%. Same read-out and setting: with `CC(Cl)C(=O)N1CCN(Cc2ccccc2)C2(CCNC2=O)C1` (stereo not shown) [ET-114, 6-benzyl-9-(2-chloropropanoyl)-2,6,9-triazaspiro[4.5]decan-1-one] the figure was 0%. Consider `CCC(CC)OC(=O)C(C)NP(=O)(OCC(=O)N1CCN(Cc2ccccc2)C2(CCNC2=O)C1)Oc1ccccc1` (stereo not shown) [ET-115, Pentan-3-yl ((2-(6-benzyl-1-oxo-2,6,9-triazaspiro[4.5]decan-9-yl)-2-oxoethoxy)(phenoxy)phosphoryl)alaninate], for which, under setting [5], the “% Inhibition at 30 µM” value came out at 31%. Turning to `CCC(CC)OC(=O)C(C)NP(=O)(OCC(=O)N1CCN(Cc2ccccc2)C2(CCNC2=O)C1)Oc1ccccc1` (stereo not shown) [ET-116, Pentan-3-yl ((2-(6-benzyl-1-oxo-2,6,9-triazaspiro[4.5]decan-9-yl)-2-oxoethoxy)(phenoxy)phosphoryl)alaninate], under setting [5], the “% Inhibition at 30 µM” value turned out to be 28%. As to `CCC(CC)OC(=O)C(C)NP(=O)(OCC(=O)N1CCN(Cc2ccccc2)C2(CCNC2=O)C1)Oc1ccccc1` (stereo not shown) [ET-117, Pentan-3-yl ((2-(6-benzyl-1-oxo-2,6,9-triazaspiro[4.5]decan-9-yl)-2-oxoethoxy)(phenoxy)phosphoryl)alaninate], under setting [5], the “% Inhibition at 30 µM” value worked out at 15%. Turning to `CCC(CC)OC(=O)C(C)NP(=O)(OCC(=O)N1CCN(Cc2ccccc2)C2(CCNC2=O)C1)Oc1ccccc1` (stereo not shown) [ET-118, Pentan-3-yl ((2-(6-benzyl-1-oxo-2,6,9-triazaspiro[4.5]decan-9-yl)-2-oxoethoxy)(phenoxy)phosphoryl)alaninate], under setting [5], the “% Inhibition at 30 µM” value came out at 34%.

In the case of `CCC(CC)OC(=O)[C@H](C)NP(=O)(OCC(=O)N1CCN(Cc2ccccc2)C2(CCNC2=O)C1)Oc1ccccc1` (stereo partly shown) [ET-119, Pentan-3-yl ((2-(6-benzyl-1-oxo-2,6,9-triazaspiro[4.5]decan-9-yl)-2-oxoethoxy)(phenoxy)phosphoryl)alaninate], the inhibition at 30 µM under setting [3] was determined as 34%. In the case of `CCC(CC)OC(=O)[C@H](C)NP(=O)(OCC(=O)N1CCN(Cc2ccccc2)C2(CCNC2=O)C1)Oc1ccccc1` (stereo partly shown) [ET-120, Pentan-3-yl ((2-(6-benzyl-1-oxo-2,6,9-triazaspiro[4.5]decan-9-yl)-2-oxoethoxy)(phenoxy)phosphoryl)alaninate], under setting [5], the “% Inhibition at 30 µM” value is listed as 30%.
